In one experiment the test system is caspase-3/7. Briefly: Caspase-3/7 green flow cytometric assay in HepG2 cells. The experiment is classed as cell-based, human. Conditions: HepG2 cells treated with compound. An excerpt: Caspase-3 is a cysteine-aspartic protease protein that facilitates the enzymatic cleavage of specific target proteins. It consists of two subunits, specifically a 12-kDa subunit and a 17-kDa subunit, which are characterized by the presence of three and five thiol functions, respectively. […] The crucial involvement of the terminal caspase-3/7 activation is observed in the initiation of apoptosis and subsequent cell demise in neoplastic cells. To gain more insight into the apoptotic mode of action for compound 5, we assessed the active caspase-3/7 levels in HepG2 cells utilizing a green flow cytometric assay. […] Compared to the control group of untreated HepG2 cells, there was a remarkable 5.6-fold rise in the levels of active Caspase-3/7 upon treatment with compound 5. […] These findings provide valuable insights into the potential mechanism of action of compound 5 as an anti-cancer agent. Activation of Caspase-3/7 is a pivotal step in the apoptotic pathway, leading to the programmed destruction of cancer cells. […]
The HepG2 cell line was subjected to treatment with compound 5, and subsequently, an analysis was conducted using the Cell Event caspase-3/7 green flow assay. […] Subsequently, the cells were assessed utilizing the BD FACS CALIBER flow cytometer.

A further experiment concerns the target T1, β-tubulin (Homo sapiens, UniProt P07437).
T1 construct: impact of compound 5 on β-tubulin polymerization activity in HepG2 cells; endogenous in cells; host or cells: HepG2
Nature of the experiment: β-tubulin polymerization activity (TUB β ELISA, 450 nm) in HepG2 cells. The experiment is classed as cell-based. Conditions: HepG2, 0.9 µM, 24 h. From the text:
Microtubules are widely recognized as a significant target for anti-cancer therapy due to their pivotal involvement in cellular division and the preservation of cellular morphology. The impact of numerous anti-cancer agents is achieved through their ability to disrupt microtubule dynamics. This disruption ultimately results in the deregulation of mitotic spindles, leading to cell cycle arrest in cancer cells and subsequently inducing apoptosis. Toward this end, we further aimed to assess investigated the impact of compound 5 on β-tubulin polymerization activity in HepG2 cells. Thus, HepG2 cells were treated with compound 5 at (0.9 µM) for a duration of 24 h and the activity of β-tubulin polymerization was explored using spectrophotometry at 450 nm. […] These findings indicate that compound 5 interferes with the process of microtubule assembly, thereby disrupting the proper formation of mitotic spindles. […]
Dulbecco's Modified Eagle Medium (DMEM) (Invitrogen/Life Technologies) containing 10% fetal bovine serum (FBS) (Hyclone), 10 µg/mL of insulin (Sigma), and 1% penicillin–streptomycin was used for culturing the HepG2 cell line. […] This color change was then quantitatively measured using spectrophotometry at a specific wavelength of 450 nm ± 10 nm. […]

T1 sequence (P07437 whole entry): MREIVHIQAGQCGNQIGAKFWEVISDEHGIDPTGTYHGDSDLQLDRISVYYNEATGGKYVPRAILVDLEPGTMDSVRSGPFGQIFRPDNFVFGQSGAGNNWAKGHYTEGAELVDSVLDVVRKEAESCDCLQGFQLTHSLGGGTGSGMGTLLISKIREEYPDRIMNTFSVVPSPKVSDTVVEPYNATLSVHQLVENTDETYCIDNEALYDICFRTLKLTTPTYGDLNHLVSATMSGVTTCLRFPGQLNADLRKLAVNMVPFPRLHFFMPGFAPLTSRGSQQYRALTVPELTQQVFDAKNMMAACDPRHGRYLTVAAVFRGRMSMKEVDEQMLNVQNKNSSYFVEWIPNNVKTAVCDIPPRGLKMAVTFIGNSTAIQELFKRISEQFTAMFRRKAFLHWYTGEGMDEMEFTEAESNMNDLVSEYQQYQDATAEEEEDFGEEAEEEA
T1 sequence (P68363 whole entry partner): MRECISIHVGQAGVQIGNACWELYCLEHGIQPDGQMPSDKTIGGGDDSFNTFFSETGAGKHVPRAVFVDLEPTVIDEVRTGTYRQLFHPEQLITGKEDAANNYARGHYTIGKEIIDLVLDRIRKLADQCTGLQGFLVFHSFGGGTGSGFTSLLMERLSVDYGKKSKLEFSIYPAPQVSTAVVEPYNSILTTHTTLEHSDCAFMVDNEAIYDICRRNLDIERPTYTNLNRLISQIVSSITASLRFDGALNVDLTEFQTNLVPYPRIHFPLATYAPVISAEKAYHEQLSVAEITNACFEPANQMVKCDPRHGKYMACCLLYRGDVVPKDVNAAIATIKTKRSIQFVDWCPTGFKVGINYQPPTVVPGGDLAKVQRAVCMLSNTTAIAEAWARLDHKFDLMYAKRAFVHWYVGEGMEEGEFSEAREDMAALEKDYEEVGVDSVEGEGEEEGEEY

As for `COc1ccc(Br)c2cc(C(N)=O)c(=O)oc12` [Compound 5, 5-Bromo-8-methoxycoumarin-3-carboxamide], in the experiment on caspase-3/7, the “rise in levels of active Caspase-3/7 vs untreated HepG2 cells” value was found to be 5.6 fold. Moreover, the “reduction in the concentration of β-tubulin polymerization vs untreated HepG2 cells” value on β-tubulin was “threefold”.

Source of the values: paper PMC10693084, “Novel 8-Methoxycoumarin-3-Carboxamides with potent anticancer activity against liver cancer via targeting caspase-3/7 and β-tubulin polymerization” (BMC Chemistry, 2023).
